In ChEMBL document CHEMBL1165932, “Inhibition of Mycobacterium tuberculosis tyrosine phosphatase PtpA by synthetic chalcones: kinetics, molecular modeling, toxicity and effect on growth” (Bioorg Med Chem, 2010) one finds Activity data, which are given here for five compounds.

Assay [1] relates to Mycobacterium tuberculosis. The assay can be described thus: Antibacterial activity against Mycobacterium bovis BCG infected in human THP1 cells assessed as viral infection at 20 uM after 48 hrs relative to control. Type of assay: functional, variant bovis BCG, THP-1.
The test system of assay [2] is Mycobacterium tuberculosis. The assay can be described thus: Antibacterial activity against Mycobacterium bovis BCG infected in human THP1 cells assessed as viral infection at 10 uM after 24 hrs relative to control. It counts as functional, variant bovis BCG, THP-1.

As to `COc1ccc(OC)c(C(=O)/C=C/c2cccc3ccccc23)c1`, the Activity in assay [1] turned out to be 46.3%; in assay [2], 108.6%.

In the case of `O=C(/C=C/c1cccc2ccccc12)c1ccccc1O`, the values for the Activity in assay [1] and in assay [2] were 71.3% and 180.8%, respectively.

For the compound `COc1ccc(OC)c(C(=O)/C=C/c2ccc3ccccc3c2)c1`, the Activity is listed as 234.9% in assay [1] and 117.7% in assay [2].

As to `COc1cc(C(=O)/C=C/c2ccc3ccccc3c2)ccc1O`, the Activity in assay [1] is 8.5%; in assay [2], 72.9%.

On to `COc1ccc(C(=O)/C=C/c2ccc3ccccc3c2)cc1OC`, for which the Activity was found to be 32.9% in assay [1] and 63.8% in assay [2].
